According to paper PMC12320299 (Chemical Science, 2025):

Assays:
[1] = tested on: HCT116 TP53 wild-type (TP53WT); assay: MTT viability assay, HCT116 TP53 wild-type, 96 h; format: cell-based, human
Method: removed and 100 µL DMSO was added to dissolve the formazan crystals. Photometric quantification was performed at 570 nm with a Multiskan Go 1510 photometer (Thermo Fisher […]
The absorbances were blank corrected and converted to relative proliferation. The IC50 values (concentration of 50% growth inhibition) were obtained using a sigmoidal fit of the experimental data and calculated as the mean ± standard deviation of at least three independent experiments, each in at least triplicates.
HCT116, HCT116 p53KO (each 2.000 cells/well) and CT-26 cells (500 cells/well) were seeded in 100 µL/well into flat-bottom 96-well plates (Starlab) and incubated at 37 °C for 96 h in a humidified incubator (Binder CB210) at 5% CO2. The test compound was dissolved in DMSO, serially diluted in the appropriate cell culture medium (see section above) to final DMSO concentrations of ≤0.5% v/v and 100 µL aliquots added to wells in triplicates. […] Optical densities were measured with a microplate reader (ELx808, Biotek) at a wavelength of 550 nm (and a reference wavelength of 690 nm) and blank corrected. […]
(each 3.000 cells/well) were seeded in 100 µL/well into flat-bottom 96-well plates (Starlab) and incubated at 37 °C for 24 h in a humidified incubator (Binder CB210) at 5% CO2. […] After 24 h of treatment, plates were measured by MTT assay as described above. […]

[2] = Tissue and plasma proteome profiling of 1a-treated CT26-bearing mice; format: in vivo, BALB/c mice; settings: 10 mg kg^−1, five days
Text: On day five, tumour, liver and blood were harvested two hours after the last injection of 1a. Blood plasma and livers were harvested to obtain insight into systemic drug effects and tumours were collected to obtain information about local effects of the candidate drug.
For proteomic workup, the fresh tissue samples were quickly rinsed with PBS and shock-frozen in liquid nitrogen. Blood plasma was immediately prepared by centrifugation of the collected blood in ethylenediaminetetraacetic acid (EDTA) tubes. The samples were analysed in technical duplicates due to the expected larger heterogeneity and statistical evaluation was performed using the LIMMA algorithm[73] and gene set variation analysis (GSVA).[74] […] Statistical significance was calculated based on multi-parameter testing-adjusted P-values […].
Animals. All experiments were carried out with male Balb/c mice according to the regulation of the Ethics Committee for the Care and Use of Laboratory Animals at the Medical University Vienna (BMWF-2022-0.770.291), the guidelines from the Austrian Animal Science Association and the Federation of European Laboratory Animal Science Associations (FELASA). The animals were kept in a pathogen-free conditions, controlled environment with 12 h light–dark cycle with ad libitum access to food and water. Every procedure was done in a laminar airflow […]
Treatment. CT-26 cells ([…] in 50 μL serum-free medium) were injected subcutaneously (s.c.) into the right flank of ten– to eleven-week-old male Balb/c mice. Three days after cell injection, all compounds (dissolved in 10% DMSO in water) were administered […]
In case of the proteomic profiling […]
in water for 5 consecutive days. On the last day, 2 h after the last treatment, mice were euthanized, and blood was collected in an EDTA tube via heart punctation. Tumours and livers were harvested, quickly rinsed with PBS and snap-frozen in liquid nitrogen. Blood plasma was obtained by centrifugation (2×10 min at 900 g). […]
Sample Processing. All steps were performed on ice. The frozen tissue samples (weights ranging from 8.6– 51.5 mg) were transferred to 15 mL Falcon tubes containing 150 µL sodium deoxycholate lysis buffer (SDC; 0.4 g SDC, 500 μL Tris∙HCl (pH 8.8) in 9.5 mL H2O) and homogenized with a sonication probe (Bandelin Sonoplus HD 2070; Bandelin Electronic GmbH & Co. KG, Berlin, Germany). After sonication the homogenates were centrifuged at 10.000 g for 5 minutes and the resulting supernatant was transferred to new reaction tubes. […]
EDTA-anticoagulated plasma samples were diluted in SDC buffer at a ratio of 1 : 20, heated at 95 °C for 5 min and stored at –20 °C. The protein concentration of each sample was determined using a BCA assay. […]

Q: For `CCC1=C2[O][Ru][O]C2(n2cccn2)c2ccccc2C1=O.Cc1ccc(C(C)C)cc1` (centres unmarked) [Compound 1a, [(3-ethyl-4-oxo-(pyrazolyl)-dihydronaphthalene)(cymene)ruthenium(II)]], which IC50 [1] is on record?
A: 130 ± 20 nM

Q: And the “EGFR level in tumour” value [2]?
A: down-regulated

Q: And the “statistically significant regulations, plasma” value ([2]; of 285 identified)?
A: 79

Q: And the “statistically significantly regulated proteins, liver” value ([2]; of 2770 identified)?
A: 14

Q: What about the “statistically significant regulations, tumour” value ([2]; of 3867 identified) of the same molecule?
A: 5
